Measured values as given in patent US9422239B1, “Dual PPAR-δ PPAR-γ agonists” (Auburn University, priority 2013, dated 2016).

Key:
[1] = system: BDNF promoter in primary hippocampal neuronal cells; assay: BDNF promoter luciferase activity; format: cell-based, rat; conditions: dose response curve
Source text: Primary hippocampal cells: Rat primary neuron cultures for luciferase assays as well as westerns and all other cell cultured assays are described herein. Rat primary neuron cultures can be generated from embryonic day 18-21 rat embryo (male and female) brains (Sprague Dawley) following known protocols. Briefly, the cortices, together with hippocampi, can be dissected and cells can be dissociated with 0.25% trypsin (Invitrogen), treated with 0.05% DNase I (Roche). To remove alternative cells and RBC's, tissue slurry can be allowed to sediment by gravity for 30 minutes at room temperature. Lower cellular suspension can then be plated on poly-D-lysine-coated dishes in Neurobasal A medium (Invitrogen) with B27 supplement (Invitrogen), penicillin (PAA Laboratories, 100 U/ml), streptomycin (PAA Laboratories, 0.1 mg/ml), and 1 mM L-glutamine (PAA Laboratories). Mitotic inhibitor 5-fluoro-2′-deoxyuridine (Sigma) can be added to the medium (10 μM) at 2 days in vitro (DIV) to remove fibroblast and astrocyte contamination. To test isolation purity for neurons, markers for neurons (MAP2) specificity can be measured by gene and western analysis.
Nine distinct transcriptional initiation sites exist: eight in the 5′ noncoding exon and one preceding coding exon IX, indicating nine different promoters control BDNF transcription sites. […]

PPARδ (PDK4-PPRE) = target: T1, PPARδ (PDK4-PPRE) (Homo sapiens, UniProt Q03181); assay: PDK4-PPRE luciferase assay in HEK-293 cells; format: cell-based
T1 construct: expressed in transfected cells; host or cells: HEK-293
T1 sequence (Q03181 1-441): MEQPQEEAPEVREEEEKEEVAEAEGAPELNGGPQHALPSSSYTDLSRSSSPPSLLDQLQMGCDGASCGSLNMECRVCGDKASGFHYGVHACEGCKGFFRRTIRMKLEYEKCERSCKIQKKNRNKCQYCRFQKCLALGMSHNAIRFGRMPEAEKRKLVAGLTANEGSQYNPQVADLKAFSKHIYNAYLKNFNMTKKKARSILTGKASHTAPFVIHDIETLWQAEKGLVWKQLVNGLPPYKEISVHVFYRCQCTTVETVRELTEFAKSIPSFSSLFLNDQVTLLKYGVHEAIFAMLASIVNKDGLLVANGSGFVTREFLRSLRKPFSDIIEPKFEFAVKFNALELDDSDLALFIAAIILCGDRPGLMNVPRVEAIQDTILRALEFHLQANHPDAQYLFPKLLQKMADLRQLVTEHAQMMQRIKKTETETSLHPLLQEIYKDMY
T1 sequence (P19793 1-462 partner): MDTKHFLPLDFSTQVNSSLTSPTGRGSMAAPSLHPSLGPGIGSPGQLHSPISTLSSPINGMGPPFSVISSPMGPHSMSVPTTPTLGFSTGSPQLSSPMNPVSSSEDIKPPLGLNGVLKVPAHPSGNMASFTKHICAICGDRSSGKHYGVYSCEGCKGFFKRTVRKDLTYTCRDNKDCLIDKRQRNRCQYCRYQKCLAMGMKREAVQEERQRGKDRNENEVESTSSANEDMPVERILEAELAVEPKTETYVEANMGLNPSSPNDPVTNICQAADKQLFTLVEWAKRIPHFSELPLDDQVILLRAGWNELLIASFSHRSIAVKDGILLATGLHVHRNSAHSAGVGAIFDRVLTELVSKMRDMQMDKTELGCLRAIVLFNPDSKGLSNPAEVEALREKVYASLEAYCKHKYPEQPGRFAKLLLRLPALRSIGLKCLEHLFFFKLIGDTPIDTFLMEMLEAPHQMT
Source text: To validate the specificity of the novel compounds towards activation of PPARγ/δ targets, we tested the compounds capacity to bind to select PPARγ/δ Peroxisome Proliferator Response Elements (PPRE). The PPRE are unique sites located in the promoter region where PPARs bind and transcriptionally activate the target genes. AP2-PPRE is the PPARγ target involved in adipocyte growth and differentiation. PDK4-PPRE is a PPARδ target involved in regulating energy metabolism in the cell. These PPREs were inserted into a PGL3 luciferase vectors containing CMV promoters (ADDGENE) using PCR. These vectors were co-transfected with RXR, PPARγ/PPARδ and p-galactosidase vectors into HEK-293 cells using Lipofectamine 2000 (Invitrogen). Relative light units (RLU) were measured using a Glomax Luminometer (Promega). Data were standardized to p-galactosidase activity using ONPG (Promega).

H19-7 hippocampal cells = assay: BDNF, post synaptic markers and spine formation in H19-7 hippocampal cells; format: cell-based
Source text: As shown in FIGS. 15A & B, reduced BDNF protein and gene expression is observed in db/db hippocampi which helps explain the observation that diabetes attenuates the expression of post synaptic receptor expression levels in db/db mice hippocampi.
As mentioned above, BDNF is known to induce synaptogenesis, spine density, and post synaptic receptor expression in neurons but has been previously shown to be reduced in AD brains.
The novel compounds (e.g., compound 9) have been developed as tools to better study the effects of PPARγ activation in the hippocampus upon cognition in AD.

PPARγ targets = assay: PPARγ target gene (mRNA) expression in hippocampi by qRT-PCR; format: in vivo, mice; conditions: 1 mg/kg orally, compared to rosiglitazone (ICV) and control
Protocol: Male C57/b16 and leptin deficient (db/db) mice were purchased from Jackson Laboratories (Bar Harbor, Me.). Animals were maintained in 12 hours of dark-light cycle. […] Both drugs were suspended in sterile saline. Four additional groups comprised the control portion of the study and received physiological saline in the place of the drug treatment either orally or by ICV. […] All treatments extended for 2 weeks.
Total RNA was isolated from hippocampi using RNAeasy Lipid Tissue Mini Kit (Qiagen, Valencia, Calif.) and was converted to cDNA (iScript cDNA synthesis kit—Bio Rad, Hercules, Calif.). Real-time PCR was performed in triplicate using a RT2 SYBR Green/Fluorescein fast master mix (SA-Bioscience) and an iCycler real-time PCR thermocycler (Bio-Rad). Gene expression was normalized to β-actin. Relative gene expression was determined by the comparative CT method (30). The data is presented as mean+/−SEM.

In the case of `Cc1ccc(CNCCCN(Cc2ccc(C(=O)O)cc2)Cc2cc(C(F)(F)F)cc(C(F)(F)F)c2)cc1` [Compound 9], the “BDNF promoter activity (luciferase)” value [1] was “inducing”, the “Binding affinity for the PDK4-PPRE” value (PPARδ (PDK4-PPRE)) was “strong binding affinity” and the “Post synaptic density marker PSD95 expression” value (H19-7 hippocampal cells; H19-7 cells, western analysis) was “increase”. The BDNF expression (H19-7 hippocampal cells; H19 cells) was “increase”, the Spine formation (H19-7 hippocampal cells; H19 cells) was “promotes spine formation” and the “Activation of PPARγ targets in hippocampi (mRNA expression)” value (PPARγ targets) was “selective activation of PPARγ targets”.
